Data as given in ChEMBL document CHEMBL3621142, “Discovery and Evaluation of Clinical Candidate AZD3759, a Potent, Oral Active, Central Nervous System-Penetrant, Epidermal Growth Factor Receptor Tyrosine Kinase Inhibitor” (J Med Chem, 2015).
Activity calls are given as the source filed them. The rule behind the calls is not given here.

Key:
MDR1 (P-gp) = experiment: Efflux ratio of permeability from basolateral to apical side over apical to basolateral side in MDCK2-MDR1 cells; format: ADME, cell-based, Canis lupus familiaris; details: dog, MDCK-MDR1
[1] = Fraction unbound in Han Wistar rat blood at 5 uM by equilibrium dialysis method; format: ADME, tissue-based; details: Han Wistar
[2] = AUC (0 to 7 hrs) in Han Wistar rat brain at 2 mg/kg, po by LC-MS/MS analysis; format: ADME, organism-based; set-up: dose 2 mg/kg, time < 7 hr, route oral; details: Han Wistar, brain
[3] = Ratio of unbound AUC (0 to 7 hrs) in brain to blood of Han Wistar rat at 2 mg/kg, po by LC-MS/MS analysis; format: ADME, organism-based; details: Han Wistar, brain and blood, read-out: K(p,uu,brain)
[4] = AUC (0 to 7 hrs) in Han Wistar rat blood at 2 mg/kg, po by LC-MS/MS analysis; format: ADME, organism-based; set-up: dose 2 mg/kg, time < 7 hr, route oral; details: Han Wistar, blood
[5] = (§1) AUC (0 to 7 hrs) in Han Wistar rat CSF at 2 mg/kg, po by LC-MS/MS analysis; format: ADME, organism-based, Cerebrospinal fluid; set-up: time < 7 hr, dose 2 mg/kg, route oral; details: Han Wistar, CSF
[6] = Ratio of unbound AUC (0 to 7 hrs) in CSF to blood of Han Wistar rat at 2 mg/kg, po by LC-MS/MS analysis; format: ADME, organism-based; details: for Kp uu: Han Wistar, CSF and blood
[7] = target: Epidermal growth factor receptor (Homo sapiens, UniProt P00533, L858R); format: cell-based, H3255
[8] = Fraction unbound in Han Wistar rat brain at 5 uM by equilibrium dialysis method; format: ADME, tissue-based; details: Han Wistar, brain
[9] = Permeability from apical to basolateral side in MDCK2-MDR1 cells; format: ADME, cell-based, Canis lupus familiaris, MDCK-II; details: dog, MDCK-MDR1
[10] = Elimination half life in Han Wistar rat at 1 mg/kg, iv; format: ADME, organism-based; details: Han Wistar, in vivo, read-out: beta t1/2 (converted)
[11] = Clearance in Han Wistar rat at 1 mg/kg, iv; format: ADME, organism-based; details: in vivo
Rattus norvegicus = experiment: (§2) Oral bioavailability in Han Wistar rat at 2 mg/kg; format: ADME, organism-based; details: in vivo
[12] = AUC(0 to 24 hrs) in Han Wistar rat at 2 mg/kg, po; format: ADME, organism-based; set-up: dose 2 mg/kg, time < 24 hr, route oral; details: Han Wistar, in vivo
[13] = Volume of distribution at steady state in Han Wistar rat at 1 mg/kg, iv; format: ADME, organism-based; details: Han Wistar, in vivo, read-out: Vdss
[14] = as §2; format: ADME, organism-based; details: Han Wistar, in vivo
[15] = AUC (0 to 7 hrs) in Han Wistar rat CSF at 20 mg/kg, po measured after 0.5 to 24 hrs by LC-MS/MS analysis; format: ADME, organism-based, Cerebrospinal fluid; set-up: time < 7 hr, dose 20 mg/kg, route oral
[16] = Ratio of unbound AUC (0 to 24 hrs) in brain to blood of Han Wistar rat at 20 mg/kg, po by LC-MS/MS analysis; format: ADME, organism-based; details: brain and blood, read-out: K(p,uu,brain)
[17] = Ratio of unbound AUC (0 to 24 hrs) in CSF to blood of Han Wistar rat at 20 mg/kg, po by LC-MS/MS analysis; format: ADME, organism-based; details: CSF and blood
[18] = AUC (0 to 7 hrs) in Han Wistar rat brain at 20 mg/kg, po measured after 0.5 to 24 hrs by LC-MS/MS analysis; format: ADME, organism-based; set-up: time < 7 hr, dose 20 mg/kg, route oral
BCRP [19] = experiment: Permeability from apical to basolateral side in BCRP transfected MDCK2 cells; format: ADME, cell-based, Canis lupus familiaris, MDCK-II; details: dog
[20] = AUC (0 to 7 hrs) in Han Wistar rat blood at 20 mg/kg, po measured after 0.5 to 24 hrs by LC-MS/MS analysis; format: ADME, organism-based; set-up: time < 7 hr, dose 20 mg/kg, route oral
BCRP [21] = experiment: in vitro; details: dog
Description: Efflux ratio of permeability from basolateral to apical side over apical to basolateral side in BCRP transfected MDCK2 cells

Cerebrospinal fluid = experiment: as §1; format: ADME, organism-based; set-up: time < 7 hr, dose 2 mg/kg, route oral; details: in vivo, 7 h, BLD = below limit of detection
PC-9 [22] = experiment: Antitumor activity against human PC9 cells expressing EGFR exon19 deletion mutant xenografted in mouse assessed as tumor regression at 15 mg/kg, qd measured after 4 weeks; format: functional, organism-based
Mus musculus = experiment: Toxicity in PC9 cells expressing EGFR exon19 deletion mutant xenografted mouse assessed as loss of body weight at 15 mg/kg, qd; format: organism-based, PC-9; details: in vivo
PC-9 [23] = experiment: Antitumor activity against human PC9 cells expressing EGFR exon19 deletion mutant xenografted in mouse at 15 mg/kg, qd measured after 4 weeks; format: functional, organism-based

Epidermal growth factor receptor, sequence (P00533 25-1210 L858R limits assumed): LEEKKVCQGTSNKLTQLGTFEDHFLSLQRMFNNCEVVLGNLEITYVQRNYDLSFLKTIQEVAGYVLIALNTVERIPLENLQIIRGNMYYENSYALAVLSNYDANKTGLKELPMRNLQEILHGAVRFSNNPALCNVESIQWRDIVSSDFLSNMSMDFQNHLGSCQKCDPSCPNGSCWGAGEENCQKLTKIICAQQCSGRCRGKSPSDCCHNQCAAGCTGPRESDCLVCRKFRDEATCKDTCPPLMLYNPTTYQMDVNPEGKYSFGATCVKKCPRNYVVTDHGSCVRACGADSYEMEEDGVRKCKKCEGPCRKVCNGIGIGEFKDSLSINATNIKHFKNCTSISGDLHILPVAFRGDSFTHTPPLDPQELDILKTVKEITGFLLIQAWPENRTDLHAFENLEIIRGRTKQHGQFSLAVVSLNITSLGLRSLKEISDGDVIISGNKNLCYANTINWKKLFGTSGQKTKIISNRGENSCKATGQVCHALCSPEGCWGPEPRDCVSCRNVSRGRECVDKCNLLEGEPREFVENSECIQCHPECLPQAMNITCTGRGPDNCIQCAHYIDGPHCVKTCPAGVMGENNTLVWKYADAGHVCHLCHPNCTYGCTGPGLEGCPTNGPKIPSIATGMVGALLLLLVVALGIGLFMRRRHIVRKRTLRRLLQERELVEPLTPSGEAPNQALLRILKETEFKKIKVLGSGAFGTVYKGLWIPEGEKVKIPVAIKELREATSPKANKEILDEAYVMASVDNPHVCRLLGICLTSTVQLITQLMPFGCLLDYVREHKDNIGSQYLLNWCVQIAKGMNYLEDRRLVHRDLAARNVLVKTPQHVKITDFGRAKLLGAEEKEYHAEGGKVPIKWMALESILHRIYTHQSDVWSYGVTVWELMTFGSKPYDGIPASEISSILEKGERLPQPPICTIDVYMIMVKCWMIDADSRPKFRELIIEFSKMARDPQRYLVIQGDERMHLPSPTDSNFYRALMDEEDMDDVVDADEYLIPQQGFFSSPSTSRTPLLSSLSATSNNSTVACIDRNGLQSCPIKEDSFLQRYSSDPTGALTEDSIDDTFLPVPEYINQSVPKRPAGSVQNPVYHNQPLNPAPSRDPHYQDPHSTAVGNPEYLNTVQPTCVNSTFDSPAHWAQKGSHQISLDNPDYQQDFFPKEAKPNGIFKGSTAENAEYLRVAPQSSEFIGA

efflux ratio (MDR1 (P-gp)) | fraction unbound at 5 µM [1] | fraction unbound at 5 µM [8] | Papp A→B [9] [×10⁻⁶ cm/s] | Structure (SMILES) | AUC(0-t) at 7 h [2] [µM·h] | Kp uu [3] | AUC(0-t) at 7 h [4] [µM·h] | AUC(0-t) at 7 h [5] [µM·h] | Kp uu [6] | IC50 [7] [nM] | also measured
0.18 | 0.022 | 0.0083 | 29 | COc1cc2ncnc(Nc3ccc(F)c(Cl)c3)c2cc1N1CCOCC1 | 0.085 | 0.42 | 0.077 | 0.001 | 0.79 | 1.5 | 
0.58 | 0.038 | 0.026 | 42 | COc1cc2ncnc(Nc3cccc(Cl)c3F)c2cc1OC(=O)N1CCOCC1 | 0.104 | 1.7 | 0.042 | 0.005 | 3.4 | 4.1 | 
 |  | 0.0039 | 8.3 | COc1cc2ncnc(Nc3ccc(F)c(Cl)c3)c2cc1OCCCN1CCOCC1 [GEFITINIB] |  |  |  |  |  |  | AUC(0-t) at 7 h [15]: 0.093 µM·h; Kp uu [16]: 0.021; Kp uu [17]: 0.088; AUC(0-t) at 7 h [18]: 5.65 µM·h; Papp A→B (BCRP [19]): 4.2 ×10⁻⁶ cm/s; AUC(0-t) at 7 h [20]: 31.9 µM·h
11 | 0.041 | 0.0054 | 2.5 | CN(C)C/C=C/C(=O)Nc1cc2c(Nc3ccc(F)c(Cl)c3)ncnc2cc1O[C@H]1CCOC1 [AFATINIB] |  |  |  |  |  |  | Kp uu [16]: 0.0066; Kp uu [17]: 0.27; efflux ratio (BCRP [21]): 59; Papp A→B (BCRP [19]): 1.3 ×10⁻⁶ cm/s
 | 0.023 | 0.015 | 51 | COc1cc2ncnc(Nc3cccc(Cl)c3F)c2cc1OC(=O)N1CCN(C)C[C@@H]1C | 1.94 | 1.6 | 0.805 | 0.048 | 2.6 |  | half-life [10]: 2.4 h; clearance [11]: 29 mL/min/kg; bioavailability [14]: 83%; AUC(0-t) at 24 h [12]: 2.95 µM·h; Vd [13]: 2.7 L/kg
0.29 | 0.058 | 0.022 | 32 | COc1cc2ncnc(Nc3cccc(Cl)c3F)c2cc1N1CCOCC1 | 0.085 | 0.96 | 0.033 | 0.002 | 0.93 | 1.5 | 
2.9 | 0.17 | 0.088 | 28 | COc1cc2ncnc(Nc3cccc(Cl)c3F)c2cc1C(=O)N1CCOCC1 | 0.101 | 0.03 | 1.63 | 0.046 | 0.16 | 166 | 
1.7 | 0.045 | 0.029 | 19 | C#Cc1cccc(Nc2ncnc3cc(OCCOC)c(OCCOC)cc23)c1 [ERLOTINIB] |  |  |  |  |  |  | Kp uu [16]: 0.11; Kp uu [17]: 0.29; Activity (PC-9 [22]): Active; efflux ratio (BCRP [21]): 5.4; Papp A→B (BCRP [19]): 14 ×10⁻⁶ cm/s; Activity (Mus musculus): Toxic; Activity (PC-9 [23]): Active

More lines, now with the values behind:

Structure (SMILES) | efflux ratio (MDR1 (P-gp)) | fraction unbound at 5 µM [1] | fraction unbound at 5 µM [8] | Papp A→B [9] [×10⁻⁶ cm/s] | AUC(0-t) at 7 h [2] [µM·h] | Kp uu [3] | AUC(0-t) at 7 h [4] [µM·h] | AUC(0-t) at 7 h [5] [µM·h] | Kp uu [6] | IC50 [7] [nM] | also measured
COc1cc2ncnc(Nc3cccc(Cl)c3F)c2cc1OC(=O)N1CC[C@@H](N(C)C)C1 | 0.76 | 0.058 | 0.023 | 47 | 2.04 | 0.27 | 3 | 0.075 | 0.43 | 1.1 | 
COc1cc2ncnc(Nc3cccc(Cl)c3F)c2cc1OC(=O)N1CCN(C)C2CC21 (stereo in doubt; 1i) |  | 0.028 | 0.019 | 67 | 0.585 | 0.51 | 0.786 | 0.019 | 0.9 |  | half-life [10]: 0.9 h; clearance [11]: 28 mL/min/kg; F (Rattus norvegicus): 52%; AUC(0-t) at 24 h [12]: 1.57 µM·h; Vd [13]: 2 L/kg
COc1cc2ncnc(Nc3cccc(Cl)c3F)c2cc1OC(=O)N1CCN(C)[C@H](C)C1 | 0.94 | 0.064 | 0.018 | 54 | 0.417 | 0.28 | 0.404 | 0.007 | 0.28 | 21.5 | half-life [10]: 1.3 h; clearance [11]: 55 mL/min/kg; bioavailability [14]: 92%; AUC(0-t) at 24 h [12]: 1.04 µM·h; Vd [13]: 3.2 L/kg
COc1cc2ncnc(Nc3cccc(Cl)c3F)c2cc1OC(=O)N1CC[C@H](N(C)C)C1 | 0.34 | 0.049 | 0.024 | 17 | 0.798 | 0.15 | 2.48 | 0.068 | 0.56 | 2.7 | 
COc1cc2ncnc(Nc3cccc(Cl)c3F)c2cc1OC(=O)N1C[C@@H]2C[C@H]1CN2C | 0.39 | 0.134 | 0.016 | 14 | 0.332 | 0.086 | 0.454 |  |  | 2.3 | AUC (Cerebrospinal fluid): BLD; K(p,uu,CSF) ([6]; csf, BLD = below limit of detection): BLD
COc1cc2ncnc(Nc3cccc(Cl)c3F)c2cc1OC(=O)N1CCN(C)[C@@H](C)C1 | 1.5 | 0.035 | 0.016 | 59 | 0.278 | 0.84 | 0.157 | 0.019 | 3.5 | 16.9 | half-life [10]: 1.1 h; clearance [11]: 26 mL/min/kg; bioavailability [14]: 24%; AUC(0-t) at 24 h [12]: 0.789 µM·h; Vd [13]: 1.9 L/kg
